Measurements taken from patent US10888542B2 (SK BIOPHARMACEUTICALS CO., LTD., priority 2014, dated 2021).

Legend:
dopamine transporter = biological target: T1, dopamine transporter (Rattus norvegicus, UniProt P23977); experiment: Dopamine transporter binding assay ([3H]GBR12935, rat striatal membranes); conditions: 10 μM test compound, radioligand [3H]GBR12935 1.0 nM, 25° C., 45 minutes
T1 construct: The receptor source was rat striatal membranes; from tissue; host or cells: striatum of male SD rats (Orient Korea), membrane preparation
T1 sequence (P23977 whole entry): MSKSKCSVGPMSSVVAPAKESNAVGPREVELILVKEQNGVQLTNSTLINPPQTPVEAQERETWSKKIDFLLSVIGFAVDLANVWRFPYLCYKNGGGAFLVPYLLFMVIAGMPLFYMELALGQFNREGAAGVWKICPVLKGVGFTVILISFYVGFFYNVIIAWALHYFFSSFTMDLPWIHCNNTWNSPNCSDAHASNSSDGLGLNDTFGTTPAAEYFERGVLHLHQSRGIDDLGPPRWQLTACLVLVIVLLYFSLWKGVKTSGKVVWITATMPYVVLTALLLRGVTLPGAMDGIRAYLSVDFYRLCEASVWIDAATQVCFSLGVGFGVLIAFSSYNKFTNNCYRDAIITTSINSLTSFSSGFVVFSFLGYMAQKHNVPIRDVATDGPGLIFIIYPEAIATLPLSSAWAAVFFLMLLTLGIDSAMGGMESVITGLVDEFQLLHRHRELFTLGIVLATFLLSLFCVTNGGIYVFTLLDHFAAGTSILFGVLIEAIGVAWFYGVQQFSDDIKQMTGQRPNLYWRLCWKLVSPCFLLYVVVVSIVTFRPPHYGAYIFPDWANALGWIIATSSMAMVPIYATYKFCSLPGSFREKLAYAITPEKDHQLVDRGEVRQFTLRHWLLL
Experimental: Rats (SD-rat, Orient Korea, male, 200-250 g) were sacrificed by decapitation. The striata were removed immediately and then stored at −80° C. until used. On the day of the manipulation, the striata were thawed and suspended in 20 volumes of buffer containing 50 mM Tris-HCl and 120 mM NaCl (pH 7.7). The suspension then was centrifuged at 17,700 rpm for 20 minutes. The pellet was resuspended in 20 volumes of the buffer and centrifuged at 17,700 rpm for 20 minutes. This procedure was repeated once more. The pellet obtained was resuspended in a few ml of the buffer and then homogenized. The concentration of the receptor source was determined by Lowry et al., 1951, J. Biol. Chem. 193:265-275.
Dopamine Transporter Assay Protocol
The dopamine reuptake transporter binding assay was performed according to the methods described in Madras et al., 1989, Mol. Pharmacol. 36(4):518-524, and Javitch et al., 1984, Mol. Pharmacol. 26(1):35-44. The receptor source was rat striatal membranes; the radioligand was GBR12935 [prolyene-2,3-^3H] […]

mice = experiment: Locomotor activity test (LMA); assay type: in vivo; conditions: ip, LMA measured 30 minutes after dosing, counts for 10 minutes, percent change from control
From the text: Psychostimulant activity was examined through the locomotor activity test (LMA). The LMA is a behavioral test developed to predict the efficacy of psychostimulants. The LMA is an attractive test for psychostimulants because it is sensitive and specific. All of the major classes of psychostimulants enhance ambulatory activities in the LMA, including methylphenidate, amphetamine, and many other psychostimulants.
Sixteen (16) mice (3 weeks CrjBgi:CD-1 (ICR) and 8 weeks C57BL/6) were purchased from Orient Bio Inc. (Gyeonggi-do, Korea). The mice were divided into a control group and a drug-treated group (eight (8) mice per group) by a block randomization method. Each of the group was placed in an empty cage and bred under environmental conditions of 19-25° C. with a relative humidity of 40-60% and a lighting cycle of 12 hr light/12 hr dark. Diet and water were supplied ad libitum. After one week of acclimation, the LMA test was carried out. The mice were habituated for over 1 hour in an LMA room before starting the LMA test. After habituation, the test compounds (10 or 30 mg/kg) were administered to the drug-treated group by intraperitoneal injection. At 30 minutes after i.p. dosing, LMA was measured using automated photobeams, Opto-Varimax® (Columbus Instruments, Ohio, US) and recorded on a computer. The total locomoter counts for each mouse were recorded for 10 minutes.
Statistical mean values for control and drug-treated groups were calculated and the percent changes from control were determined.

SMILES | inhibition at 10 µM (dopamine transporter) | % ambulation (mice; 30 mg/kg) | % ambulation (mice; 10 mg/kg)
Cl.NC(=O)NC(=O)OC[C@H](N)Cc1ccccc1 [Example 2, (2R)-2-Amino-3-phenylpropyl (aminocarbonyl)carbamate] | 50.1% | 118.7% (30 mg/kg, ip) | 
CC(C)N[C@@H](COC(=O)NC(N)=O)Cc1ccccc1.Cl [Example 3, (2R)-2-(Isopropylamino)-3-phenylpropyl (aminocarbonyl)carbamate] | 40.1% | 291.5% (30 mg/kg, ip) | 
CN(C)[C@@H](COC(=O)NC(N)=O)Cc1ccccc1.Cl [Example 4, (2R)-2-(Dimethylamino)-3-phenylpropyl (aminocarbonyl)carbamate] | 38.4% | 242.6% (30 mg/kg, ip) | 
NC(=O)NC(=O)OC[C@H](N)Cc1ccc(Cl)cc1Cl [Example 6, (2R)-2-Amino-3-(2,4-dichlorophenyl)propyl (aminocarbonyl)carbamate] | 20.4% |  | 
NC(=O)NC(=O)OC[C@H](N)Cc1ccc(Cl)c(Cl)c1 [Example 7, (2R)-2-Amino-3-(3,4-dichlorophenyl)propyl (aminocarbonyl)carbamate] | 41.2% |  | 
CN(C(N)=O)C(=O)OC[C@H](N)Cc1ccccc1 [Example 8] | 20.3% | 186.4% (30 mg/kg, ip) | 
NC(=O)NC(=O)OCC(N)Cc1ccc(Cl)cc1 (stereo not shown) [Example 9] | 42.8% |  | 
CN[C@@H](COC(=O)NC(N)=O)Cc1ccccc1 [Example 14] | 35.9% |  | 
CN(C(N)=O)C(=O)OC[C@@H](Cc1ccccc1)N(C)C [Example 15] | 55.5% |  | 202.2% (10 mg/kg, ip)
NC(=O)N(Cc1ccccc1)C(=O)OC[C@H](N)Cc1ccccc1 [Example 16, (2R)-2-Amino-3-phenylpropyl (aminocarbonyl)benzylcarbamate] | 20.8% |  | 
CCN(C(N)=O)C(=O)OC[C@H](N)Cc1ccccc1 [Example 17, (2R)-2-Amino-3-phenylpropyl(aminocarbonyl)ethylcarbamate] | 41.2% |  | 
CN(C(N)=O)C(=O)OC[C@H](N)Cc1ccccc1Cl [Example 18] | 17.5% |  | 
CN(C(N)=O)C(=O)OC[C@H](N)Cc1ccc(F)cc1 [Example 19, 2-Amino-3-(4-fluorophenyl)propyl(aminocarbonyl)methylcarbamate] | 34.3% |  | 
CN(C(N)=O)C(=O)OC[C@H](N)Cc1ccc(Cl)cc1Cl [Example 21, (2R)-2-amino-3-(2,4-dichlorophenyl)propyl (aminocarbonyl) Methylcarbamate] | 31.5% |  | 
CN(C(N)=O)C(=O)OC[C@H](N)Cc1ccc(Cl)c(Cl)c1 [Example 22, (2R)-2-Amino-3-(3,4-dichlorophenyl)propyl (aminocarbonyl) Methylcarbamate] | 37% |  | 
CN(C(N)=O)C(=O)OCC(N)Cc1ccccc1 (stereo not shown) [Example 24] | 45% |  | 
N[C@@H](COC(=O)NC(=O)Nc1ccccc1)Cc1ccccc1 [Example 29, (2R)-2-Amino-3-phenylpropyl (anilinocarbonyl)carbamate] | 50.7% |  | 
